Test results as given in patent US8163909B2, “Substituted hydroxyethyl amine compounds as beta-secretase modulators and methods of use” (Amgen Inc., priority 2007, dated 2012).
Read-outs that look alike come from different tables or passages of the source.

Assays:
[1] = human, microsomes, 1 μM, pH 7.4
CYP3A = CYP3A (Homo sapiens, UniProt P08684); settings: CYP3A4 inhibition; for IC50: read-out: 3A4 IC50
[2] = rat, microsomes, 1 μM, pH 7.4
[3] = Microsomal stability assay, human liver microsomes;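 note: pooled human liver microsomes at 0.25 mg/mL with 1 µM compound and NADPH at 37 °C, pH 7.4, for 30 min, unchanged parent quantified by LC-MS/MS against the 0 min sample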
CYP2D6 = CYP2D6 (Homo sapiens, UniProt P10635); assay: CYP2D6 inhibition assay (bufuralol, pooled human liver microsomes)
CYP2D6, sequence (P10635 whole entry): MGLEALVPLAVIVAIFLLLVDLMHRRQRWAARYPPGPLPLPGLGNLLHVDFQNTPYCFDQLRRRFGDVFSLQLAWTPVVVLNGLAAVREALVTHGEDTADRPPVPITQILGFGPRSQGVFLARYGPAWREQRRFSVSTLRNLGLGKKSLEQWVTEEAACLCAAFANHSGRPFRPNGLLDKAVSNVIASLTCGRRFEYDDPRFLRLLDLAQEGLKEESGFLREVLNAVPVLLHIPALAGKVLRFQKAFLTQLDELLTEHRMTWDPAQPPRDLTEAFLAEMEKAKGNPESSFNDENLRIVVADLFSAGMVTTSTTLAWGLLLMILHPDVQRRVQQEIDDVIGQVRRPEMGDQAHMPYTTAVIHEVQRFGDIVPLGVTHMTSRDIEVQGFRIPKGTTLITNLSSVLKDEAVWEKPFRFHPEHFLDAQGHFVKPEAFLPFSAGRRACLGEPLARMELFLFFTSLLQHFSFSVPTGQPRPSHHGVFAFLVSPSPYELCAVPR

[4] = system: Aβ40 in conditioned medium of cells stably expressing Amyloid Precursor Protein (APP); assay: In vitro BACE cell-based assay (Aβ40 in conditioned medium, sandwich ELISA);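 note: compounds added as a dilution series, secreted peptide quantified by europium time-resolved fluorescence readout, potency fitted from percent of control versus compound concentration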
[5] = molecular target: Beta Secretase enzyme (BACE) (Homo sapiens, UniProt P56817); assay: In vitro enzymatic BACE FRET (fluorescence resonance energy transfer) assay; assay type: biochemical;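 note: fluorescence read after 1 h with 50 nM quenched peptide substrate spanning the BACE cleavage site, in pH 4.2 acetate buffer containing 10% DMSO and nonionic detergent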
Beta Secretase enzyme (BACE), sequence (P56817 46-501): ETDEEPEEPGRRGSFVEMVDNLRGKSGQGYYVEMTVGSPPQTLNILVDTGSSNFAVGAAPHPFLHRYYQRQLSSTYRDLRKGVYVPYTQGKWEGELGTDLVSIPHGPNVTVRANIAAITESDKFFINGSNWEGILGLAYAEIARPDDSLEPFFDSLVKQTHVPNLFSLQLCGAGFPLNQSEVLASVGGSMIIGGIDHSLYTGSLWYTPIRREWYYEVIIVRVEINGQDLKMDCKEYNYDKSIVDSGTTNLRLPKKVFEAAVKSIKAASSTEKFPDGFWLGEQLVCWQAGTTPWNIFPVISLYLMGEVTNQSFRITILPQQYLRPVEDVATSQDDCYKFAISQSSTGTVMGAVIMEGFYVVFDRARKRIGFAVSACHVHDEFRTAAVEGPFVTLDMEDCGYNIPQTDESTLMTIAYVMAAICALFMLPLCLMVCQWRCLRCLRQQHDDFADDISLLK

[6] = Microsomal stability assay, rat liver microsomes;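 note: rat liver microsomes (0.25 mg/mL) with about 1 µM compound plus 1 mM NADPH, pH 7.4, 37 °C for 30 min, parent left measured by LC-MS/MS against 0 min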
Abeta peptide = assay: In vivo inhibition of beta-secretase (reduction of Abeta peptide in brain and cerebrospinal fluid); design: species or system rat; settings: po, orally administered at 30 mg/kg dose, measured after 4 hours;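 note: abeta peptide quantified by sandwich ELISA with electrochemiluminescence readout in rat brain supernatant or CSF, relative to vehicle-dosed control animals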
CYP3A4 (CYP3A) = CYP3A4 (CYP3A) (Homo sapiens, UniProt P08684); assay: in vitro; settings: microsomes, pH 7.4
CYP3A4 (CYP3A), sequence (P08684 2-503): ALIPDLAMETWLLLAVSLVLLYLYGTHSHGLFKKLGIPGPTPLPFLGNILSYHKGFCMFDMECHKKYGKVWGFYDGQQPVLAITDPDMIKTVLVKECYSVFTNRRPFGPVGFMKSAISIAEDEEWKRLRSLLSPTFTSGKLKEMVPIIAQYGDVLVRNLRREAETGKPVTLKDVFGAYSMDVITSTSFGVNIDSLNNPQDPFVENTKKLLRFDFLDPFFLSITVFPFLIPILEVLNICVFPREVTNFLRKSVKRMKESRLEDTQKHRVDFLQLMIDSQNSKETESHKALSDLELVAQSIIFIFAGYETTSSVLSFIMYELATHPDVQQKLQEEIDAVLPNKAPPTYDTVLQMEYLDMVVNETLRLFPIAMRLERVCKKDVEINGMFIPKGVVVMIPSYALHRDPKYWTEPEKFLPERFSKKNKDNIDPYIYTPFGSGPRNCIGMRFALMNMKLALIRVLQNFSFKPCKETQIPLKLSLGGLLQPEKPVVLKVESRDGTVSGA

[7] = read-out: 2D6 IC50, CYP2D6 inhibition
[8] = read-out: BACE1 FRET assay (IC50)
[9] = 2D6 IC50 (uM), CYP enzyme inhibition
[10] = Homo sapiens, HEK293, HEK cells, read-out: HEK cell assay
[11] = BACE enzyme assay, read-out: BACE1 FRET assay
[12] = Rattus norvegicus, 4 h, rat cerebrospinal fluid, read-out: percent reduction of abeta peptide in the cerebrospinal fluid of the rat
[13] = Rattus norvegicus, 4 h, rat brain, read-out: percent reduction of abeta peptide in the brain of the rat
[14] = Homo sapiens, HEK293, HEK cells, read-out: HEK cell assay (IC50)
[15] = 2D6 IC50 (uM), CYP2D6 inhibition
[16] = Homo sapiens, HEK293, HEK cell-based assay IC50, read-out: HEK cell assay
[17] = BACE enzyme assay IC50, read-out: BACE1 FRET assay

CYP3A, sequence (P08684 2-503): as above

| SMILES | HLM [1] [µL/min/mg] | RLM [2] [µL/min/mg] | HLM ([3]; human liver microsomes) [µL/min/mg] | RLM ([6]; rat liver microsomes) [µL/min/mg] | IC50 (CYP3A4 (CYP3A)) [nM] | inhibition in vivo at 30 mg/kg (Abeta peptide; [12]) [%] | further results |
| --- | --- | --- | --- | --- | --- | --- | --- |
| COCC(=O)N[C@@H](Cc1cc(F)cc(F)c1)[C@H](O)CN[C@H]1CC2(CCC2)Oc2c1cc([C@H]1CC1(C)C)nc2-c1ccncc1 [compound 703] | 32 | 118 |  |  |  |  | 3A4 IC50 (CYP3A): 200 nM |
| COCC(=O)N[C@@H](Cc1cc(F)cc(F)c1)[C@H](O)CN[C@H]1CC2(CCC2)Oc2c1cc([C@H]1CC1(C)C)nc2-c1ccncc1 [compound 678] | 23 | 79 |  |  |  |  |  |
| COCC(=O)N[C@@H](Cc1cccc(-c2nccs2)c1)[C@H](O)CN[C@H]1C[C@@]2(CCOC2)Oc2ncc(CC(C)(C)C)cc21 [compound 823, N-((1S,2R)-3-(((3S,4′S)-6′-(2,2-dimethylpropyl)-3′,4,4′,5-tetrahydrospiro[furan-3,2′-pyrano[2,3-b]pyridin]-4′-yl)amino)-2-hydroxy-1-(3-(1,3-thiazol-2-yl)benzyl)propyl)-2-methoxyacetamide] | 57 | 171 |  |  |  |  |  |
| COCC(=O)N[C@@H](Cc1cccc(-c2nccs2)c1)[C@H](O)CN[C@H]1C[C@@]2(CCOC2)Oc2ncc(CC(C)(C)C)cc21 [compound 814, N-((1S,2R)-3-(((3S,4′S)-6′-(2,2-dimethylpropyl)-3′,4,4′,5-tetrahydrospiro[furan-3,2′-pyrano[2,3-b]pyridin]-4′-yl)amino)-2-hydroxy-1-(3-(1,3-thiazol-2-yl)benzyl)propyl)-2-methoxyacetamide] | 40 | 112 |  |  |  |  |  |
| CC(=O)N[C@@H](Cc1cc(F)cc(-c2nccs2)c1)[C@H](O)CN[C@H]1CC2(CCC2)Oc2ncc(CC(C)(C)C)cc21 [Example 435, N-((2S,3R)-4-((S)-2,2-spirocyclobutyl-6-neopentyl-3,4-dihydro-2H-pyrano[2,3-b]pyridin-4-ylamino)-1-(3-fluoro-5-(thiazol-2-yl)phenyl)-3-hydroxybutan-2-yl)acetamide] |  |  | 125 | 197 |  |  | IC50 (CYP3A): 1400 nM; IC50 (CYP2D6; [7]): 0.3 µM; IC50 ([4]; HEK cells, read-out: HEK cell assay (IC50)): 39 nM; IC50 [5, 8]: 6 nM |
| COCC(=O)N[C@@H](Cc1cccc(-c2nccs2)c1)[C@H](O)CN[C@H]1C[C@]2(CCOC2)Oc2ncc(CC(C)(C)C)cc21 [compound 822] | 54 | 101 |  |  |  |  |  |
| C#Cc1cccc(C[C@H](NC(=O)COC)[C@H](O)CN[C@H]2C[C@]3(CCOC3)Oc3ncc(CC(C)(C)C)cc32)c1 [compound 868] | 14 | 86 |  |  |  |  |  |
| COCC(=O)N[C@@H](Cc1ccc(F)cc1)[C@H](O)CN[C@H]1CC2(CCC2)Oc2c1cc(CC(C)(C)C)nc2-c1c[nH]cn1 [Example 529] | 37 | 40 |  |  | 100 |  | inhibition in vivo at 30 mg/kg (Abeta peptide; rat cerebrospinal fluid, read-out: percent reduction of abeta peptide in the cerebrospinal fluid of the rat): 10 to 80%; IC50 (CYP2D6; [9]): 0.7 µM; IC50 [4, 10]: 12 nM; IC50 [5, 11]: 23 nM |
| COCC(=O)N[C@@H](Cc1cccc(-c2nccs2)c1)[C@H](O)CN[C@H]1C[C@]2(CCOC2)Oc2ncc(CC(C)(C)C)cc21 [compound 845] | 64 | 152 |  |  |  |  |  |
| COCC(=O)N[C@@H](Cc1cccc(-c2nccs2)c1)[C@H](O)CN[C@H]1C[C@@]2(CCOC2)Oc2ncc(CC(C)(C)C)cc21 [compound 846, N-((1S,2R)-3-(((3S,4′S)-6′-(2,2-dimethylpropyl)-3′,4,4′,5-tetrahydrospiro[furan-3,2′-pyrano[2,3-b]pyridin]-4′-yl)amino)-2-hydroxy-1-(3-(1,3-thiazol-2-yl)benzyl)propyl)-2-methoxyacetamide] | 82 | 128 |  |  |  |  |  |
| COCC(=O)N[C@@H](Cc1cccc(F)c1)[C@H](O)CN[C@H]1CC2(CCC2)Oc2c(-c3ccncc3)cc(CC(C)(C)C)cc21 [Example 535] |  |  |  |  | 100 | 10 to 80 | HLM ([3]; human liver microsomal data): 49 µL/min/mg; IC50 (CYP2D6; [9]): 2.5 µM; IC50 [4, 10]: 6 nM; IC50 [5, 11]: 9 nM; RLM ([6]; rat liver microsomal data): 79 µL/min/mg |
| CC(=O)N[C@@H](Cc1cc(F)cc(-c2nccs2)c1)[C@H](O)CN[C@H]1CC2(CCC2)Oc2ncc(CC(C)(C)C)cc21 [Example 643, N-((1S,2R)-3-(((4′S)-6′-(2,2-dimethylpropyl)-3′,4′-dihydrospiro[cyclobutane-1,2′-pyrano[2,3-b]pyridin]-4′-yl)amino)-1-(3-fluoro-5-(1,3-thiazol-2-yl)benzyl)-2-hydroxypropyl)acetamide] |  |  | 68 | 56 | 100 | 10 to 80 | inhibition in vivo at 30 mg/kg (Abeta peptide; [13]): 5 to 80%; IC50 (CYP2D6; 2D6 IC50, CYP2D6 inhibition): 0.7 µM; IC50 [4, 14]: 12 nM; IC50 [5, 8]: 2 nM |
| CC(=O)N[C@@H](Cc1ccc(F)c(-c2nccs2)c1)[C@H](O)CN[C@H]1CC2(CCC2)Oc2ccc(CC(C)(C)C)cc21 [Example 640] |  |  | 59 | 113 | 700 | 10 to 80 | IC50 (CYP2D6; 2D6 IC50, CYP2D6 inhibition): 0.3 µM; IC50 [4, 14]: 53 nM; IC50 [5, 8]: 6 nM |
| CO[C@H](C)C(=O)N[C@@H](Cc1ccc(F)c(-c2nccs2)c1)[C@H](O)CN[C@H]1CC2(CCC2)Oc2ncc(CC(C)(C)C)cc21 [Example 690] |  |  | 40 | 53 | 100 |  | inhibition in vivo at 30 mg/kg (Abeta peptide; [13]): 5 to 80%; IC50 (CYP2D6; [15]): 0.5 µM; IC50 [4, 16]: 40 nM; IC50 [5, 17]: 11 nM |
| CC(=O)N[C@@H](Cc1ccc(F)c(-c2cscn2)c1)[C@H](O)CN[C@H]1CC2(CCC2)Oc2ccc(CC(C)(C)C)cc21 [Example 436, N-((2S,3R)-4-((S)-2,2-spirocyclobutyl-6-neopentyl-3,4-dihydro-2H-chromen-4-ylamino)-1-(4-fluoro-3-(thiazol-4-yl)phenyl)-3-hydroxybutan-2-yl)acetamide] |  |  | 135 | 78 |  |  | IC50 (CYP3A): 200 nM; IC50 (CYP2D6; [7]): 2.2 µM; IC50 ([4]; HEK cell-based assay IC50, read-out: HEK cell assay): 24 nM; IC50 [5, 17]: 5 nM |
| C#Cc1cccc(C[C@H](NC(=O)COC)[C@H](O)CN[C@H]2C[C@]3(CCOC3)Oc3ncc(CC(C)(C)C)cc32)c1 [compound 824] | 21 | 28 |  |  |  |  |  |
| CC(=O)N[C@@H](Cc1ccccc1)[C@H](O)CN[C@H]1CC2(CCC2)Oc2c1cc(CC(C)(C)C)nc2-c1ccncc1 [Example 542] |  |  |  |  | 200 | 10 to 80 | HLM ([3]; human liver microsomal data): 36 µL/min/mg; IC50 (CYP2D6; [9]): ≥ 27 µM; IC50 [4, 10]: 103 nM; IC50 [5, 11]: 24 nM; RLM ([6]; rat liver microsomal data): 193 µL/min/mg |
| COCC(=O)N[C@@H](Cc1ccc2c(c1)OCO2)[C@H](O)CN[C@H]1CC2(CCC2)Oc2ncc([C@@H]3CC3(C)C)cc21 [Example 575, N-((1S,2R)-1-(1,3-benzodioxol-5-ylmethyl)-3-(((4′S)-6′-((1R)-2,2-dimethylcyclopropyl)-3′,4′-dihydrospiro[cyclobutane-1,2′-pyrano[2,3-b]pyridin]-4′-yl)amino)-2-hydroxypropyl)-2-methoxyacetamide] |  |  | 33 | 194 | 100 | 10 to 80 | IC50 (CYP2D6; 2D6 IC50, CYP2D6 inhibition): 1.5 µM; IC50 [4, 14]: 16 nM; IC50 [5, 8]: 10 nM |
| CO[C@H](C)C(=O)N[C@@H](Cc1cc(F)cc(F)c1)[C@H](O)CN[C@H]1CC2(CCC2)Oc2c1cc(CC(C)(C)C)nc2-c1cncn1C [Example 652] |  |  | 26 | 50 | 160 | 10 to 80 | IC50 (CYP2D6; 2D6 IC50, CYP2D6 inhibition): 2 µM; IC50 [4, 14]: 20 nM; IC50 [5, 8]: 28 nM |
| COCC(=O)N[C@@H](Cc1cccc(-n2ccnc2)c1)[C@H](O)CN[C@H]1CC2(CCC2)Oc2ncc(CC(C)(C)C)cc21 [Example 698, N-((1S,2R)-3-(((4′S)-6′-(2,2-dimethylpropyl)-3′,4′-dihydrospiro[cyclobutane-1,2′-pyrano[2,3-b]pyridin]-4′-yl)amino)-2-hydroxy-1-(3-(1H-imidazol-1-yl)benzyl)propyl)-2-methoxyacetamide] |  |  | 58 | 33 | ≤ 30 | 10 to 80 | IC50 (CYP2D6; [15]): 0.1 µM; IC50 [4, 16]: 9 nM; IC50 [5, 17]: 26 nM |
